Source: the NIST ThermoML archive (doi:10.1016/j.jct.2007.11.001)

Experiment: molar heat capacity at constant pressure
Settings: 101.33 kPa, Small (less than 1 g) adiabatic calorimetry

O=P([O-])([O-])[O-].[Cs+].[Mg+2] [caesium-magnesium monophosphate]
molar heat capacity at constant pressure [J/K/mol]
Settings | Crystal 1 | Crystal 2
7.22 K | – | 0.956
7.3 K | – | 0.981
7.96 K | – | 1.22
8 K | – | 1.24
8.7 K | – | 1.59
9.4 K | – | 1.98
10.09 K | – | 2.4
10.42 K | – | 2.67
11.01 K | – | 3.12
11.69 K | – | 3.64
12.4 K | – | 4.2
13.07 K | – | 4.7
13.9 K | – | 5.392
14.63 K | – | 6.03
15.35 K | – | 6.706
16.06 K | – | 7.41
16.84 K | – | 8.22
17.45 K | – | 8.872
18.81 K | – | 10.39
19.49 K | – | 11.15
20.16 K | – | 11.94
21.16 K | – | 13.14
22.91 K | – | 15.3
25.31 K | – | 18.18
27.75 K | – | 20.87
30.21 K | – | 23.48
32.69 K | – | 25.92
35.16 K | – | 28.27
37.64 K | – | 30.51
40.12 K | – | 32.64
42.6 K | – | 34.69
45.08 K | – | 36.64
47.57 K | – | 38.55
52.52 K | – | 41.99
54.99 K | – | 43.63
57.47 K | – | 45.23
59.95 K | – | 46.77
61.64 K | – | 47.78
63.99 K | – | 49.13
67.48 K | – | 51.06
71.15 K | – | 53
74.82 K | – | 54.85
78.48 K | – | 56.63
82.15 K | – | 58.35
82.7 K | – | 58.61
85.82 K | – | 60.04
85.9 K | – | 60.06
88.99 K | – | 61.45
89.49 K | – | 61.67
91.95 K | – | 62.76
94.91 K | – | 64.05
97.87 K | – | 65.34
100.82 K | – | 66.59
103.77 K | – | 67.82
106.72 K | – | 69.04
109.68 K | – | 70.27
112.63 K | – | 71.51
115.8 K | – | 72.79
118.91 K | – | 74.06
121.88 K | – | 75.27
124.84 K | – | 76.48
127.8 K | – | 77.7
130.76 K | – | 78.9
133.72 K | – | 80.09
136.69 K | – | 81.3
139.65 K | – | 82.5
142.62 K | – | 83.64
145.59 K | – | 84.81
148.56 K | – | 85.97
151.53 K | – | 87.14
154.5 K | – | 88.22
157.6 K | – | 89.38
160.43 K | – | 90.46
163.6 K | – | 91.63
166.37 K | – | 92.62
169.34 K | – | 93.7
172.31 K | – | 94.79
175.74 K | – | 96.03
178.73 K | – | 97.11
182.05 K | – | 98.28
185.19 K | – | 99.36
188.17 K | – | 100.4
191.4 K | – | 101.5
194.3 K | – | 102.6
197.16 K | – | 103.5
199.5 K | – | 104.3
200.16 K | – | 104.6
202.4 K | – | 105.3
202.86 K | – | 105.5
205.51 K | – | 106.3
205.98 K | – | 106.6
208.48 K | – | 107.5
208.94 K | – | 107.8
211.44 K | – | 108.6
211.9 K | – | 108.9
214.13 K | – | 109.6
214.59 K | – | 109.9
217.18 K | – | 110.9
217.64 K | – | 111.2
220.64 K | – | 112.7
221.1 K | – | 113
223.65 K | – | 114.4
224.11 K | – | 114.9
226.53 K | – | 116.3
226.99 K | – | 116.9
232.4 K | – | 122.6
232.75 K | – | 123.1
235.69 K | 133.5 | 129.2
235.7 K | 129.1 | –
237.89 K | 126.1 | –
238.55 K | 124.9 | –
240.77 K | 121.7 | –
241.43 K | 120.9 | –
243.77 K | 118.8 | –
244.43 K | 118.3 | –
246.72 K | 116.9 | –
247.38 K | 116.7 | –
249.24 K | 115.8 | –
249.9 K | 115.7 | –
250 K | 112.2 | –
252.35 K | 115.1 | –
253.01 K | 114.9 | –
255.27 K | 114.7 | –
255.8 K | 114.7 | –
257.91 K | 114.8 | –
258.57 K | 114.8 | –
260 K | 114.2 | –
260.67 K | 115 | –
261.33 K | 115.1 | –
263.41 K | 115.3 | –
264.07 K | 115.4 | –
266.23 K | 115.7 | –
266.89 K | 115.8 | –
268.97 K | 116.1 | –
269.63 K | 116.2 | –
270 K | 116.3 | –
271.52 K | 116.5 | –
272.18 K | 116.7 | –
274.19 K | 117.1 | –
274.85 K | 117.2 | –
276.83 K | 117.7 | –
277.49 K | 117.8 | –
280 K | 118.3 | –
280.12 K | 118.3 | –
282.5 K | 118.8 | –
285.44 K | 119.4 | –
287.8 K | 119.8 | –
289.7 K | 120.3 | –
290 K | 120.3 | –
